In patent publication US20210309951A1, “USE OF NATURAL FLAVORS AND NATURAL SMOKE FLAVORS TO ENHANCE FUNCTIONALITY OF BUFFERED ORGANIC ACIDS AND METHODS FOR PRODUCING THE SAME” (Kerry Luxembourg S.à.r.I., priority 2020, published 2021):

Molecular target: lysine residues on bovine serum albumin (Bos taurus, UniProt P02769)
Assay: Protein crosslinking method (reactivity with lysine residues)
Format: biochemical
Details: 30 mM working concentration, 70° C., BSA 10 mg/mL; among standard reference materials
Method: Selected active carbonyl compounds (glycolaldehyde, glyoxal, methyl glyoxal, and other carbonyls) were compared for their protein crosslinking capability. Standard reference materials were purchased from Sigma Aldrich [Glycolaldehyde (material no. G6805-5G, batch no. STBG0623V), Glyoxal (material no. 128465-500G, batch no. STBH8032), Methylglyoxal (material no. M0252-250 ml, batch no. BCBT1161), and other carbonyl (material no. F8775-500 ml, batch no. MKCK0272)]. Glutaraldehyde used as a reference material. The protein crosslinking capability was measured as their reactivity with lysine residues on bovine serum albumin (FIG. 6). In the Protein Crosslinking method, experiments were conducted at 30 mM working concentration of individual carbonyls and at 70° C.
Two IsoFin Products were made using two different types of natural liquid smoke flavors (CS9 and MA45GF) and were compared for total carbonyls and protein crosslinking capability. Among the two, the IsoFin B (CS9 based) was made with 50% CS9 (lot #0218938702, Zesti Smoke, Kerry America Region, Monterey, Tenn.) and 50% Homestyle vinegar flavor (IsoAge Technologies, Springfield, Mo.), whereas the IsoFin B (MA45GF based) was made with 9% MA45GF (lot #0214042186, Red Arrow, Kerry America Region, Manitowoc, Wis.)), 1% 300 grain vinegar (lot #09918209), and 90% Homestyle vinegar flavor. […]

Chain of lysine residues on bovine serum albumin (P02769 25-607): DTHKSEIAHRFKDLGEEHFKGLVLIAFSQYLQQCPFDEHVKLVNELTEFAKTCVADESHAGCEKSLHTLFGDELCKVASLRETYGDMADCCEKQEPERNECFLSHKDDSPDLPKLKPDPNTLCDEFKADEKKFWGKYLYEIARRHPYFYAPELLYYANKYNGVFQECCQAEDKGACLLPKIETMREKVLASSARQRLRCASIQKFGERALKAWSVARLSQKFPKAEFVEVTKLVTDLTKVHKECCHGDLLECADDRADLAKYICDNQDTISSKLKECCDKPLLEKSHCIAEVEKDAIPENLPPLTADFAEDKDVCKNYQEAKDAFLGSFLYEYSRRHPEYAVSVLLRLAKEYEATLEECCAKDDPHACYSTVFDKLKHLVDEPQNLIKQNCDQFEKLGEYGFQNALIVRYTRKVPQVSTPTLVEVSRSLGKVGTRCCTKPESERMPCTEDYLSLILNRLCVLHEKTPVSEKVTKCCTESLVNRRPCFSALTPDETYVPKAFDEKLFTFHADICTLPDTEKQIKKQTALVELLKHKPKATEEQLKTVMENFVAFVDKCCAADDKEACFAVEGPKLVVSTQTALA

O=CCO [glycolaldehyde, Glycolaldehyde]
reactivity with lysine (protein crosslinking capability): maximum reactivity with lysine
